Laboratory results from US5120828A, “Synthetic polypeptide with laminin activity” (Regents of the University of Minnesota, priority 1989, dated 1992).

Target: T1, peptide AC15 (Mus musculus, UniProt P02469)
T1 construct: residues 202-218 from the B1 chain of laminin; The single letter amino acid code for this polypeptide is RIQNLLKITNLRIKFVK; made in house; host or cells: chemical solid-phase (Merrifield) synthesis, no expression host
Assay: Heparin/peptide interaction specificity: competition of 3H-heparin binding to coated peptide AC15 by glycosaminoglycans
Settings: 3 μg per well of peptide AC15 coated; various amounts of non-radioactive glycosaminoglycan; 2 h, 37° C.; FIG. 9
Procedure: To check whether charge was the main factor in the interaction between heparin and peptide AC15 or whether the heparin structure was also critical to this interaction, heparin along with one other sulfated glucosaminoglycan, chondroitin sulfate were used in competition experiments. A standard amount of 3 μg per well of peptide AC15 was coated on 96-well plates as described above. Wells were treated for two hours with 2 mg/ml BSA in wash buffer. Then, a final volume of 50 μl was added to each well, containing a standard amount of ^3 H-heparin (5,000 cpm per well) and various amounts of non-radioactive heparin, and chondroitin sulfate. After incubating for two hours at 37° C., the wells were washed and radioactivity was counted as described above in Example 1.

Row | Substance | competition for the binding of tritiated heparin to peptide AC15
1 | chondroitin sulfate | cannot mimic this effect even at very high concentrations
2 | heparin | able to compete for the binding of tritiated heparin to peptide AC15 at very low concentrations
